Measured values from US20100267561A1, “HERBICIDAL PYRIDAZINONE DERIVATIVES” (priority 2007, published 2010).

Tests used:
Test in all cases: Test B pre-/postemergence plant response
Assay type in all cases: in vivo
[1] = system: pigweed (Amaranthus retroflexus)
Procedure, shortened: (§1)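 Visual scoring from 0 (no effect) to 100 (complete control) against untreated controls was done 13 to 15 days after greenhouse treatment. Chemicals were formulated in a surfactant-containing non-phytotoxic solvent and applied to soil preemergence or to 1- to 4-leaf (2-18 cm) plants postemergence.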

[2] = system: downy bromegrass (Bromus tectorum); details: for Bromegrass, Downy plant response rating: 8 g ai/ha
Procedure, shortened: as §1

[3] = system: green foxtail (Setaria viridis)
Procedure, shortened: as §1

[4] = system: goosegrass (Eleusine indica)
Procedure, shortened: as §1

[5] = system: blackgrass (Alopecurus myosuroides); details: for Blackgrass plant response rating: 8 g ai/ha
Procedure, shortened: as §1

[6] = system: surinam grass (Brachiaria decumbens)
Procedure, shortened: as §1

wild oat (Avena fatua) = system: wild oat (Avena fatua)
Procedure, shortened: as §1

[7] = system: catchweed bedstraw (Galium aparine); details: Preemergence; for Galium plant response rating: scale 0 to 100
Procedure, shortened: as §1

[8] = system: giant foxtail (Setaria faberii)
Procedure, shortened: as §1

[9] = system: woolly cupgrass (Eriochloa villosa)
Procedure, shortened: as §1

[10] = system: lambsquarters (Chenopodium album)
Procedure, shortened: as §1

[11] = system: common ragweed (Ambrosia elation)
Procedure, shortened: as §1

[12] = system: morningglory (Ipomoea coccinea)
Procedure, shortened: as §1

corn (Zea mays) = system: corn (Zea mays)
Procedure, shortened: as §1

[13] = 8 g ai/ha, postemergence, 0-100 scale
[14] = 16 g ai/ha, postemergence, 0-100 scale
[15] = Postemergence, 31 g ai/ha, scale 0 to 100
[16] = Postemergence, 62 g ai/ha, scale 0 to 100, 0 no effect, 100 complete control
[17] = Preemergence, 31 g ai/ha, scale 0 to 100 (0 no effect, 100 complete control)
[18] = Preemergence, 62 g ai/ha, 0 to 100 scale, 0 no effect, 100 complete control
[19] = Preemergence, 8 g ai/ha, scale 0 to 100
[20] = Preemergence, 16 g ai/ha, scale 0 to 100
[21] = Postemergence, 16 g ai/ha, scale 0 to 100
[22] = Preemergence, 16 g ai/ha, scale 0 to 100 (0 no effect, 100 complete control)

CCc1cc(-c2ccc(Br)cc2)nn1-c1c(O)c(C)nn(C)c1=O [Compound 74]
Pigweed plant response rating [1, 13]: 0 | Pigweed plant response rating [1, 14]: 0 | Plant response rating, Pigweed [1, 15]: 0 | Plant response rating, Pigweed [1, 16]: 0 | Plant response rating, Pigweed [1, 17]: 0 | Plant response rating, Pigweed [1, 18]: 20 | Pigweed plant response rating [1, 19]: 0 | Pigweed plant response rating [1, 20]: 0 | Bromegrass, Downy plant response rating ([2]; postemergence, 0-100 scale): 10 | Plant response rating, Bromegrass, Downy [2, 21]: 40 | Plant response rating, Bromegrass, Downy [2, 15]: 50 | Plant response rating, Bromegrass, Downy [2, 16]: 60 | Plant response rating, Bromegrass, Downy [2, 22]: 85 | Plant response rating, Bromegrass, Downy [2, 17]: 85 | Plant response rating, Bromegrass, Downy [2, 18]: 85 | Bromegrass, Downy plant response rating ([2]; Preemergence, scale 0 to 100): 30 | Foxtail, Green plant response rating [3, 13]: 85 | Plant response rating, Foxtail, Green [3, 21]: 95 | Plant response rating, Foxtail, Green [3, 15]: 98 | Plant response rating, Foxtail, Green [3, 16]: 100 | Plant response rating, Foxtail, Green [3, 17]: 100 | Plant response rating, Foxtail, Green [3, 18]: 100 | Foxtail, Green plant response rating [3, 19]: 100 | Foxtail, Green plant response rating [3, 20]: 100 | Goosegrass plant response rating [4, 13]: 60 | Goosegrass plant response rating [4, 14]: 65 | Plant response rating, Goosegrass [4, 15]: 75 | Plant response rating, Goosegrass [4, 16]: 85 | Plant response rating, Goosegrass [4, 17]: 100 | Plant response rating, Goosegrass [4, 18]: 100 | Goosegrass plant response rating [4, 19]: 95 | Goosegrass plant response rating [4, 20]: 98 | Blackgrass plant response rating ([5]; postemergence, 0-100 scale): 90 | Plant response rating, Blackgrass [5, 21]: 95 | Plant response rating, Blackgrass [5, 15]: 98 | Plant response rating, Blackgrass [5, 16]: 100 | Plant response rating, Blackgrass [5, 22]: 100 | Plant response rating, Blackgrass [5, 17]: 100 | Plant response rating, Blackgrass [5, 18]: 100 | Blackgrass plant response rating ([5]; Preemergence, scale 0 to 100): 85 | Surinam Grass plant response rating [6, 13]: 85 | Surinam Grass plant response rating [6, 14]: 100 | Plant response rating, Surinam Grass [6, 15]: 100 | Plant response rating, Surinam Grass [6, 16]: 100 | Plant response rating, Surinam Grass [6, 17]: 100 | Plant response rating, Surinam Grass [6, 18]: 100 | Surinam Grass plant response rating [6, 19]: 100 | Surinam Grass plant response rating [6, 20]: 100 | Oat, Wild plant response rating (wild oat (Avena fatua); [13]): 98 | Oat, Wild plant response rating (wild oat (Avena fatua); [14]): 98 | Plant response rating, Oat, Wild (wild oat (Avena fatua); [15]): 100 | Plant response rating, Oat, Wild (wild oat (Avena fatua); [16]): 100 | Plant response rating, Oat, Wild (wild oat (Avena fatua); [17]): 70 | Plant response rating, Oat, Wild (wild oat (Avena fatua); [18]): 80 | Oat, Wild plant response rating (wild oat (Avena fatua); [19]): 50 | Oat, Wild plant response rating (wild oat (Avena fatua); [20]): 70 | Plant response rating, Galium ([7]; 31 g ai/ha, scale 0 to 100 (0 no effect, 100 complete control)): 0 | Plant response rating, Galium ([7]; 62 g ai/ha, 0 to 100 scale, 0 no effect, 100 complete control): 0 | Galium plant response rating ([7]; 8 g ai/ha): 0 | Galium plant response rating ([7]; 16 g ai/ha): 0 | Foxtail, Giant plant response rating [8, 13]: 80 | Plant response rating, Foxtail, Giant [8, 21]: 85 | Plant response rating, Foxtail, Giant [8, 15]: 95 | Plant response rating, Foxtail, Giant [8, 16]: 98 | Plant response rating, Foxtail, Giant [8, 17]: 100 | Plant response rating, Foxtail, Giant [8, 18]: 100 | Foxtail, Giant plant response rating [8, 19]: 80 | Foxtail, Giant plant response rating [8, 20]: 98 | Cupgrass, Woolly plant response rating [9, 13]: 85 | Plant response rating, Cupgrass, Woolly [9, 21]: 90 | Plant response rating, Cupgrass, Woolly [9, 15]: 90 | Plant response rating, Cupgrass, Woolly [9, 16]: 98 | Plant response rating, Cupgrass, Woolly [9, 17]: 98 | Plant response rating, Cupgrass, Woolly [9, 18]: 100 | Cupgrass, Woolly plant response rating [9, 19]: 65 | Cupgrass, Woolly plant response rating [9, 20]: 95 | Lambsquarters plant response rating [10, 13]: 0 | Lambsquarters plant response rating [10, 14]: 0 | Plant response rating, Lambsquarters [10, 15]: 0 | Plant response rating, Lambsquarters [10, 16]: 0 | Plant response rating, Lambsquarters [10, 17]: 0 | Plant response rating, Lambsquarters [10, 18]: 20 | Lambsquarters plant response rating [10, 19]: 0 | Lambsquarters plant response rating [10, 20]: 0 | Ragweed plant response rating [11, 13]: 0 | Ragweed plant response rating [11, 14]: 0 | Plant response rating, Ragweed [11, 15]: 0 | Plant response rating, Ragweed [11, 16]: 0 | Plant response rating, Ragweed [11, 17]: 0 | Plant response rating, Ragweed [11, 18]: 0 | Ragweed plant response rating [11, 19]: 0 | Ragweed plant response rating [11, 20]: 0 | Morningglory plant response rating [12, 13]: 0 | Morningglory plant response rating [12, 14]: 0 | Plant response rating, Morningglory [12, 15]: 0 | Plant response rating, Morningglory [12, 16]: 0 | Plant response rating, Morningglory [12, 17]: 0 | Plant response rating, Morningglory [12, 18]: 0 | Morningglory plant response rating [12, 19]: 0 | Morningglory plant response rating [12, 20]: 0 | Corn plant response rating (corn (Zea mays); [13]): 98 | Plant response rating, Corn (corn (Zea mays); [21]): 100 | Plant response rating, Corn (corn (Zea mays); [15]): 100 | Plant response rating, Corn (corn (Zea mays); [16]): 100 | Plant response rating, Corn (corn (Zea mays); [17]): 90 | Plant response rating, Corn (corn (Zea mays); [18]): 98 | Corn plant response rating (corn (Zea mays); [19]): 75 | Corn plant response rating (corn (Zea mays); [20]): 80
